Results from patent US8299097B2, “Methods for treating inflammatory disorders” (The Brigham and Women's Hospital, Inc., priority 2008, dated 2012).

Key:
P2Y12 receptors [1] = assay: Competitive radioligand binding of [H^3]ADP to LAD2 cell membranes; parameters: species or system human
Protocol: FIG. 10. Competitive ligand binding assays. 10A. […] Specific binding (typically 50-75% of the total) was calculated by subtracting the amount of radiolabel that was insensitive to the selective P2Y12 receptor antagonist 2-MesAMP. Nonspecific binding was essentially identical in the membranes with and without P2Y12 receptor knockdown. The dose response for the LAD2 membranes are from a single experiment repeated four times with similar results. The binding on the LAD2 cells with P2Y12 knocked down was repeated twice. 10B. Specific binding of radiolabeled ADP (2000 nM) to membranes of LAD2 cells. […] Results are mean±SD from three separate experiments. 10C. Conversion of radiolabeled LTD4 to LTE4 as confirmed by HPLC (left). […] Results in a second experiment were similar 10D. Competitive binding of radiolabeled 2-MesADP to COS-7 cells transfected with the human P2Y12 construct.
Competitive radioligand binding assays were performed using [H^3]ADP (the known natural ligand of P2Y12 receptors) and unlabeled LTs as competitors. […] The membranes from the transfectants expressing the forward construct bound [P^33]2-MesADP, a selective P2Y12 receptor agonist.
[^3H] […] The converted product was extracted into 400 μl of methanol, evaporated in presence of nitrogen and diluted to the required concentration with the binding buffer for the binding assay. The conversion was confirmed by running an aliquot on high-performance reverse phase liquid chromatography. […] Briefly, cells were washed in PBS, resuspended in PBS supplemented with protease inhibitor cocktail and lysed by sonication for 5 min. The lysed cells were centrifuged at 100,000 Xg for 45 min and the microsomal pellet was resuspended in 1 ml PBS. Protein concentration was determined using Biorad Protein Assay Kit. 50 μg of membrane protein was incubated for 1 h at room temperature in 250 μl of 10 mM Hepes/KOH, pH 7.4, with various concentrations of radiolabeled ligand and cold competitor. Bound [^3H] was separated from free [^3H] by filtration through GF/C filters (Whatman) and washed twice with 10 mM Hepes/KOH, pH 7.4, containing 0.01% BSA. The residual membrane-associated [^3H] on the filter was determined in 2 ml scintillation fluid by beta counter (Perkin Elmer). For [^3H]ADP, specific binding was determined by subtracting the amount of [^3H] bound in the presence of 100 μM 2-MesADP from total binding.

P2Y12 receptors [2] = target: P2Y12 receptors (Mus musculus, UniProt Q9CPV9); assay: Clopidogrel effect on LTE4-mediated amplification of OVA-induced pulmonary inflammation; format: in vivo; parameters: from tissue; host or cells: whole animal: BALB/c (OVA model) and C57BL/6 (Der f model) mice; conditions: whole lung RNA 24 h after last OVA challenge
P2Y12 receptors (Mus musculus, UniProt Q9CPV9), sequence (Q9CPV9 whole entry): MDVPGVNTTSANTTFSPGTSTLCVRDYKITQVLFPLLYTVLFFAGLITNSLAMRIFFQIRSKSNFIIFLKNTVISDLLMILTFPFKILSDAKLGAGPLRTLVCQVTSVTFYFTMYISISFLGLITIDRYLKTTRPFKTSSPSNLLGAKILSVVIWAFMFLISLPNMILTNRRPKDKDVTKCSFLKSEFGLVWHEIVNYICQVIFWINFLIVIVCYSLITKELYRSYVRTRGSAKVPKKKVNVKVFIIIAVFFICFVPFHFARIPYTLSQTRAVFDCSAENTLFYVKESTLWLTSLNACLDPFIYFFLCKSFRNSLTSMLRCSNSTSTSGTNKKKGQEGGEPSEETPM
Protocol: FIG. 4. […] 4A. […] Clopidogrel (500 μg/ml) was added to the drinking water of the indicated groups of mice for 72 h before the first intranasal dose of LTs, and was maintained throughout the treatment. Results are mean±SEM from at least 9 mice in each group. The experiments were repeated three times with similar results. 4B. PAS stains (left column) from representative mice in the indicated groups showing the effect of clopidigrel on goblet cell metaplasia. Higher magnification images of H & E stains (right) from the same animals showing cellular characteristics of the bronchovascular infiltrates. 4C. Effect of clopidogrel administration on the steady-state expression of IL-13 and MUC5AC mRNA as determined by real-time PCR of whole lung RNA extracted 24 h after the last OVA challenge of the indicated groups. Data are mean±SEM from 4-5 mice/group from a single experiment. Results in a second experiment were similar 4D-4F. […] 4D. Total cell numbers (top), percentages of eosinophils (middle), and total numbers of eosinophils in BAL fluid recovered 24 h after the last challenge with OVA. 4E. Goblet cell metaplasia (top) and representative PAS stains (bottom) from wild-type and p2ry12^−/− mice subjected to the same protocol. 4E. Inflammation scores from the same mice. Data in 4D-4F are from 4 mice per group. Results in a second experiment were similar 4G. BALB/c Cysltr1/Cysltr2^−/− mice and age-matched WT controls were subjected to the same protocol as the p2ry12^−/− mice. Total cell numbers (top), percentages of eosinophils (middle), and total numbers of eosinophils in BAL fluid recovered 24 h after the last challenge with OVA. Results are from 6 mice per group. Three experiments were performed with similar results. 4H. Goblet cell numbers (top) and representative PAS stains (bottom). 4I. Quantitative assessment of bronchovascular inflammation as determined by H & E stains. Results are from 6 mice/group.
FIG. 5. Effect of clopidogrel on LTE4-mediated amplification of pulmonary inflammation. 5A. […] The indicated mice were treated with clopidogrel for 72 h before the first dose of leukotriene. Results are mean±SEM from a minimum of 9 mice in each group. 5B. PAS stains (left column) from representative mice in the indicated groups showing the effect of clopidigrel on goblet cell metaplasia. Higher magnification images of H & E stains (right) from the same animals showing cellular characteristics of the bronchovascular infiltrates. 5C. Effect of clopidogrel administration on the steady-state expression of IL-13 and MUC5AC mRNA as determined by real-time PCR of whole lung RNA extracted 24 h after the last OVA challenge of the indicated groups. Data are mean±SEM from 4-5 mice/group. […]

## CCCCC/C=C\C\C=C/C=C/C=C/[C@@H](SC[C@H](N)C(=O)O)[C@@H](O)CCCC(=O)O [LTE4]
P2Y12 receptors [1]; unlabeled LTE4 0.1 nM, mean±SEM, four experiments
  specific ADP binding blocked: 39±9%
P2Y12 receptors [1]; unlabeled LTE4 1 nM, mean±SEM, four experiments
  specific ADP binding blocked: 50±9%
P2Y12 receptors [1]; unlabeled LTE4 1 μM, mean±SEM, four experiments
  specific ADP binding blocked (plateau): 60±7%
P2Y12 receptors [1]; unlabeled competitors 10 μM
  competition with labeled ADP, LTE4 compared with LTD4: more efficacious than LTD4
P2Y12 receptors [2]
  lung expression of IL-13 and MUC5AC mRNA (real-time PCR): tended to increase the expression of both transcripts
